US10750743B2, “Pyridazinone herbicides” (E.I. DU PONT DE NEMOURS AND COMPANY, priority 2015, dated 2020)

Assays:
Type in all cases: in vivo
[1] = tested on: ragweed (common ragweed, Ambrosia elatior); test: Test A preemergence, directed soil spray, visual injury rating; settings: 0 is no effect, 100 is complete control
Outline: (§1)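 Seeds sown in a loam soil–sand blend received a directed preemergence soil spray of test chemical in a non-phytotoxic solvent mixture with surfactant. Postemergence plants were sprayed at 2 to 10 cm, one- to two-leaf stage. After approximately 10 d in greenhouse, injury was visually rated 0 (no effect) to 100 (complete control) against untreated controls.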

kochia (Kochia scoparia) [2] = test: as above; settings: 0 is no effect, 100 is complete control
Outline: as §1

[3] = tested on: foxtail, giant (giant foxtail, Setaria faberii); test: as above; settings: 0 is no effect, 100 is complete control
Outline: as §1

[4] = tested on: pigweed (Amaranthus retroflexus); test: as above; settings: 0 is no effect, 100 is complete control
Outline: as §1

[5] = tested on: ryegrass, It. (Italian ryegrass, Lolium multiflorum); test: as above; settings: 0 is no effect, 100 is complete control
Outline: as §1

[6] = tested on: barnyardgrass (Echinochloa crus-galli); test: as above; settings: 0 is no effect, 100 is complete control
Outline: as §1

[7] = tested on: ragweed (common ragweed, Ambrosia elatior); test: Test A postemergence application, visual injury rating; settings: 0 to 100 scale, 0 no effect, 100 complete control
Outline: as §1

[8] = tested on: blackgrass (Alopecurus myosuroides); test: as above; settings: 0 to 100 scale, 0 no effect, 100 complete control
Outline: as §1

kochia (Kochia scoparia) [9] = test: as above; settings: 0 to 100 scale, 0 no effect, 100 complete control
Outline: as §1

[10] = tested on: wheat (Triticum aestivum); test: as above; settings: 0 to 100 scale, 0 no effect, 100 complete control
Outline: as §1

[11] = tested on: foxtail, giant (giant foxtail, Setaria faberii); test: as above; settings: 0 to 100 scale, 0 no effect, 100 complete control
Outline: as §1

[12] = tested on: pigweed (Amaranthus retroflexus); test: as above; settings: 0 to 100 scale, 0 no effect, 100 complete control
Outline: as §1

[13] = tested on: ryegrass, It. (Italian ryegrass, Lolium multiflorum); test: as above; settings: 0 to 100 scale, 0 no effect, 100 complete control
Outline: as §1

corn (Zea mays) = test: as above; settings: 0 to 100 scale, 0 no effect, 100 complete control
Outline: as §1

[14] = tested on: galium (catchweed bedstraw, Galium aparine); test: as above; settings: 0 to 100 scale, 0 no effect, 100 complete control
Outline: as §1

[15] = tested on: barnyardgrass (Echinochloa crus-galli); test: as above; settings: 0 to 100 scale, 0 no effect, 100 complete control
Outline: as §1

rice (Oryza sativa) = test: Test B flooded paddy test, visual rating; settings: Flood, 250 g ai/ha, applied to paddy water, rated after 13 to 15 d
Procedure: (§2) Plant species in the flooded paddy test selected from rice (Oryza sativa), sedge, umbrella (small-flower umbrella sedge, Cyperus difformis), ducksalad (Heteranthera limosa), and barnyardgrass (Echinochloa crus-galli) were grown to the 2-leaf stage for testing. At time of treatment, test pots were flooded to 3 cm above the soil surface, treated by application of test compounds directly to the paddy water, and then maintained at that water depth for the duration of the test. Treated plants and controls were maintained in a greenhouse for 13 to 15 d, after which time all species were compared to controls and visually evaluated. Plant response ratings, summarized in Table B, are based on a scale of 0 to 100 where 0 is no effect and 100 is complete control. A dash (-) response means no test result.

[16] = tested on: ducksalad (Heteranthera limosa); test: Test B flooded paddy test, visual rating; settings: Flood, 250 g ai/ha, applied to paddy water, rated after 13 to 15 d
Procedure: as §2

[17] = tested on: sedge, umbrella (small-flower umbrella sedge, Cyperus difformis); test: Test B flooded paddy test, visual rating; settings: Flood, 250 g ai/ha, applied to paddy water, rated after 13 to 15 d
Procedure: as §2

[18] = tested on: barnyardgrass (Echinochloa crus-galli); test: Test B flooded paddy test, visual rating; settings: Flood, 250 g ai/ha, applied to paddy water, rated after 13 to 15 d
Procedure: as §2

Row | Structure (SMILES) | Plant response rating (0 to 100 scale), Ragweed ([1]; 125 g ai/ha) | Plant response rating (0 to 100 scale), Kochia (kochia (Kochia scoparia) [2]; 125 g ai/ha) | Plant response rating (0 to 100 scale), Foxtail, Giant ([3]; 125 g ai/ha) | Plant response rating (0 to 100 scale), Pigweed ([4]; 125 g ai/ha) | Plant response rating (0 to 100 scale), Ryegrass, It. ([5]; 125 g ai/ha) | Plant response rating (0 to 100 scale), Barnyardgrass ([6]; 125 g ai/ha) | Ragweed plant response rating ([7]; 125 g ai/ha) | Blackgrass plant response rating ([8]; 125 g ai/ha) | Kochia plant response rating (kochia (Kochia scoparia) [9]; 125 g ai/ha) | Wheat plant response rating ([10]; 125 g ai/ha) | Foxtail, Giant plant response rating ([11]; 125 g ai/ha) | Pigweed plant response rating ([12]; 125 g ai/ha) | Ryegrass, It. plant response rating ([13]; 125 g ai/ha) | Corn plant response rating (corn (Zea mays); 125 g ai/ha) | Galium plant response rating ([14]; 125 g ai/ha) | Barnyardgrass plant response rating ([15]; 125 g ai/ha) | Rice plant response rating (0 to 100 scale, 0 is no effect, 100 is complete control) (rice (Oryza sativa)) | Ducksalad plant response rating (0 to 100 scale, 0 is no effect, 100 is complete control) [16] | Sedge, Umbrella plant response rating (0 to 100 scale, 0 is no effect, 100 is complete control) [17] | Barnyardgrass plant response rating (0 to 100 scale, 0 is no effect, 100 is complete control) [18] | further results
1 | COC(=O)Oc1c(C)nn(C)c(=O)c1-c1c(C)ccc2cc(C)oc12 [Compound 17] | 90 | 100 | 10 | 100 | 90 | 0 | 80 | 40 | 90 | 0 | 50 | 100 | 100 | 0 | 100 | 20 | 0 | 0 | 0 | 0 | Plant response rating (0 to 100 scale), Ragweed ([1]; 31 g ai/ha): 30; Plant response rating (0 to 100 scale), Kochia (kochia (Kochia scoparia) [2]; 31 g ai/ha): 40; Plant response rating (0 to 100 scale), Foxtail, Giant ([3]; 31 g ai/ha): 0; Plant response rating (0 to 100 scale), Pigweed ([4]; 31 g ai/ha): 30; Plant response rating (0 to 100 scale), Ryegrass, It. ([5]; 31 g ai/ha): 40; Plant response rating (0 to 100 scale), Barnyardgrass ([6]; 31 g ai/ha): 0; Ragweed plant response rating ([7]; 31 g ai/ha): 70; Blackgrass plant response rating ([8]; 31 g ai/ha): 10; Kochia plant response rating (kochia (Kochia scoparia) [9]; 31 g ai/ha): 70; Wheat plant response rating ([10]; 31 g ai/ha): 0; Foxtail, Giant plant response rating ([11]; 31 g ai/ha): 20; Pigweed plant response rating ([12]; 31 g ai/ha): 60; Ryegrass, It. plant response rating ([13]; 31 g ai/ha): 50; Corn plant response rating (corn (Zea mays); 31 g ai/ha): 0; Galium plant response rating ([14]; 31 g ai/ha): 80; Barnyardgrass plant response rating ([15]; 31 g ai/ha): 10
2 | CCc1sc2ncccc2c1-c1c(O)c(C)nn(C)c1=O [Compound 18] | 0 | 0 | 0 | 0 | 0 | 0 | 0 | 0 | 0 | 0 | 0 | 0 | 0 | 0 | 0 | 0 | 0 | 0 | 0 | 0 | Plant response rating (0 to 100 scale), Ragweed ([1]; 500 g ai/ha): 0; Plant response rating (0 to 100 scale), Kochia (kochia (Kochia scoparia) [2]; 500 g ai/ha): 0; Plant response rating (0 to 100 scale), Foxtail, Giant ([3]; 500 g ai/ha): 0; Plant response rating (0 to 100 scale), Pigweed ([4]; 500 g ai/ha): 10; Plant response rating (0 to 100 scale), Ryegrass, It. ([5]; 500 g ai/ha): 0; Plant response rating (0 to 100 scale), Barnyardgrass ([6]; 500 g ai/ha): 0; Ragweed plant response rating ([7]; 500 g ai/ha): 0; Blackgrass plant response rating ([8]; 500 g ai/ha): 0; Kochia plant response rating (kochia (Kochia scoparia) [9]; 500 g ai/ha): 0; Wheat plant response rating ([10]; 500 g ai/ha): 0; Foxtail, Giant plant response rating ([11]; 500 g ai/ha): 0; Pigweed plant response rating ([12]; 500 g ai/ha): 30; Ryegrass, It. plant response rating ([13]; 500 g ai/ha): 0; Corn plant response rating (corn (Zea mays); 500 g ai/ha): 0; Galium plant response rating ([14]; 500 g ai/ha): 20; Barnyardgrass plant response rating ([15]; 500 g ai/ha): 0
